Assay results: patent US20100226983A1, “Compositions for treatment and prevention of acne, methods of making the compositions, and methods of use thereof” (NanoBio Corporation, priority 2009, published 2010)
Like-named read-outs stand apart in the source and are kept apart here.

Columns and labels:
P. acnes [1] = assay: MIC and MBC against 16 P. acnes isolates in the presence of 50% artificial sebum; assay type: cell-based, Propionibacterium acnes; conditions: for increase of MBC90/MBCs in the presence of sebum / increase of MIC90 in the presence of sebum / impact of sebum on microbiological activity (MIC90/MBC90): 50% sebum versus no sebum; for MIC90: Cutibacterium acnes, 16 P. acnes isolates, 50% artificial sebum; for impact of sebum on microbiological activity (MIC90/MBC90): up to the concentrations tested
Description: The nanoemulsions (“NB-002”) comprised, in an aqueous medium, soybean oil, Tween 20® as a nonionic surfactant, ethanol, cetylpyridinium chloride (CPC) as a cationic surfactant, EDTA, and water. Artificial sebum was prepared by adding the entire ingredients given in the Table 6 and heating at 60° C. in a water bath, with intermittent stirring until all solids melted resulting in to a clear yellow liquid ([…] et al., “Diffusion properties of model compounds in artificial sebum. Int. J. Pharm., 345:88-94 (2007)). To prepare intermediate concentrations, 100× stock solutions were serially diluted 1:1 using DMSO or DI water. Final concentrations were made by 1:50 dilutions in Wilkin Chalgren media to give 2× of the final test concentrations, with final DMSO concentrations at 1%. 50 μl of these drug concentrations were transferred to 96-well plates using multi-channel pipettes. Sebum was prewarmed to 50° C. and each well received 45 μl of sebum. After ten minutes at 35° C., five microliters of a P. acnes culture at 10^8 colony-forming units/ml was added to each well.

P. acnes [2] = assay: MIC and MBC against 16 clinical isolates of P. acnes (broth microdilution, no sebum); assay type: cell-based, Propionibacterium acnes; conditions: for MBC Range / MIC Range: NB-00X formulations as μg CPC/ml; for MIC50 / MIC90 / MBC: Cutibacterium acnes
Description: The nanoemulsions (“NB-00X”) comprised, in an aqueous medium, soybean oil, Tween 20® as a nonionic surfactant, ethanol, cetylpyridinium chloride (CPC) as a cationic surfactant, EDTA, and water, and optionally, a thickening agent for the gel formulation.
Each dilution contained varying concentrations of soybean oil, Tween 20®, ethanol, CPC, and EDTA. Combination products were also evaluated; stock emulsions containing NB-00X gel (3 mg CPC/ml)+2% salicyclic acid or NB-00X gel+0.5% benzoyl peroxide (BPO) were serially diluted two-fold and each concentration was tested against 16 P. acnes isolates. In general, the standard methodology was followed for MIC and MBC determination.
Weighing of drugs and potency calculations were done as prescribed by Clinical and Laboratory Standards Institute (1). Dimethyl sulfoxide (DMSO) was used to prepare stock solutions of the water-insoluble compound tetracycline at 100× concentrations. […] Stock solutions of chlorhexidine and NB-00X were prepared at a 4× concentration in DI water.
To prepare intermediate concentrations, 100× stock solutions were serially diluted 1:1 using DMSO or DI water. Final concentrations were made by 1:50 or 1:1 dilutions in Wilkin Chalgren media (1) to give 2× of the test concentrations, with final DMSO concentrations at 1%. 50 μl of these drug concentrations were transferred to 96-well plates using multi-channel pipettes.
P. acnes strains grown on sheep blood agar for 24-48 hrs at 35° C. were used as the sources of inocula for susceptibility studies as per Clinical and Laboratory Standards Institute. […] Within 15 minutes, each well (except the negative growth controls) of the microtiter tray containing the serial dilutions of test compounds received 50 μl of inoculum, resulting into a log2 dilution of both drug and bug in each well. Verification of the colony-forming units in the inoculum was performed by diluting the adjusted inoculum preparation to […] and plating 100 μl on blood agar plate.
Microtiter and blood agar plates were incubated at 35-37° C. for 48 h in a 7.0 L AnaeroPack Jar (Mitsubishi gas chemical; No. 50-70) fitted with an anaerobic gas generating system (Misubishi, No. 10-01) and a dry anaerobic indicator strip (BBL, Becton, Dickinson & Co. #271051). MICs were read visually using a 96-well plate reader fitted with a magnifying mirror (Biodesign of New York). Because of the opacity of benzoyl peroxide, 20 μl of Cell Titer Blue (alamar blue from Promega G8080) was added after 48 hrs; the plates were incubated for an additional hour prior to reading. Colony-forming units were counted after 72 h of incubation to ensure that the initial inocula were between 2-5×10^6 cfu/ml.
The minimal bactericidal concentrations (MBC) for P. acnes were determined by plating 10 μl from the well determined to be the MIC plus 4 wells above the MIC on blood-supplemented Mueller-Hinton agar plate. Inoculated petri plates were incubated for 72 h at 35° C. under anaerobic conditions.

[3] = 16 P. acnes isolates, no sebum, read-out: MBC50
[4] = 16 P. acnes isolates, no sebum, read-out: MBC90
[5] = 16 P. acnes isolates, no sebum, listed as chlorhexidine

O=C(OOC(=O)c1ccccc1)c1ccccc1 [Benzoyl peroxide, benzoyl peroxide]
increase of MBC90/MBCs in the presence of sebum (P. acnes [1]): eight-fold | increase of MIC90 in the presence of sebum (P. acnes [1]): eight-fold | MIC90 (P. acnes [1]): 400 µg/mL | MBC Range (P. acnes [2]; 16 P. acnes isolates, no sebum): 100 to 400 µg/mL | MIC Range (P. acnes [2]; 16 P. acnes isolates, no sebum): ≦50-100 μg/ml | MIC50 (P. acnes [2]; 16 P. acnes isolates, no sebum): 50 µg/mL | MIC90 (P. acnes [2]; 16 P. acnes isolates, no sebum): 50 µg/mL | MBC (P. acnes [2]; [3]): 200 µg/mL | MBC (P. acnes [2]; [4]): 200 µg/mL

[H]/N=C(\N/C(=N/[H])NCCCCCCNC(=N)NC(=N)Nc1ccc(Cl)cc1)Nc1ccc(Cl)cc1 [Chlorhexidine, chlorhexidine]
increase of MBC90/MBCs in the presence of sebum (P. acnes [1]): at least 125 fold | increase of MIC90 in the presence of sebum (P. acnes [1]): at least eight-fold | MIC90 (P. acnes [1]): 78 µg/mL | MBC Range (P. acnes [2]; 16 P. acnes isolates, no sebum): ≦10 μg/ml | MIC Range (P. acnes [2]; 16 P. acnes isolates, no sebum): ≦10 μg/ml | MBC Range (P. acnes [2]; [5]): ≤ 10 µg/mL | MIC Range (P. acnes [2]; [5]): ≤ 10 µg/mL | MIC50 (P. acnes [2]; 16 P. acnes isolates, no sebum): ≤ 10 µg/mL | MIC90 (P. acnes [2]; 16 P. acnes isolates, no sebum): ≤ 10 µg/mL | MBC (P. acnes [2]; [3]): ≤ 10 µg/mL | MBC (P. acnes [2]; [4]): ≤ 10 µg/mL

CCC[C@@H]1C[C@@H](C(=O)N[C@@H]([C@H]2O[C@H](SC)[C@H](O)[C@@H](O)[C@H]2O)[C@H](C)Cl)N(C)C1 [Clindamycin, clindamycin]
MIC90 (P. acnes [1]): > 64 µg/mL | MIC50 (P. acnes [2]; 16 P. acnes isolates, no sebum): 2 µg/mL | MIC90 (P. acnes [2]; 16 P. acnes isolates, no sebum): > 64 µg/mL | MBC (P. acnes [2]; [3]): > 64 µg/mL | MBC (P. acnes [2]; [4]): > 64 µg/mL

CC[C@H]1OC(=O)[C@H](C)[C@@H](O[C@H]2C[C@@](C)(OC)[C@@H](O)[C@H](C)O2)[C@H](C)[C@@H](O[C@@H]2O[C@H](C)C[C@H](N(C)C)[C@H]2O)[C@](C)(O)C[C@@H](C)C(=O)[C@H](C)[C@@H](O)[C@]1(C)O [Erythromycin, erythromycin]
impact of sebum on microbiological activity (MIC90/MBC90) (P. acnes [1]): did not impact | MIC50 (P. acnes [2]; 16 P. acnes isolates, no sebum): 2 µg/mL | MBC (P. acnes [2]; [3]): > 64 µg/mL

O=C(O)c1ccccc1O [Salicylic acid]
impact of sebum on microbiological activity (MIC90/MBC90) (P. acnes [1]): not significantly impacted | MIC90 (P. acnes [1]): 1000 µg/mL | MBC90 (P. acnes [2]; 16 P. acnes isolates, no sebum): 2000 µg/mL | MIC Range (P. acnes [2]; 16 P. acnes isolates, no sebum): 500 to 1000 µg/mL | MIC50 (P. acnes [2]; 16 P. acnes isolates, no sebum): 1000 µg/mL | MIC90 (P. acnes [2]; 16 P. acnes isolates, no sebum): 1000 µg/mL | MBC (P. acnes [2]; [3]): 2000 µg/mL | MBC (P. acnes [2]; [4]): 2000 µg/mL

CN(C)[C@@H]1C(O)=C(C(N)=O)C(=O)[C@@]2(O)C(O)=C3C(=O)c4c(O)cccc4[C@@](C)(O)[C@H]3C[C@@H]12 [Tetracycline, tetracycline]
MIC90 (P. acnes [1]): 32 µg/mL | MIC50 (P. acnes [2]; 16 P. acnes isolates, no sebum): 1 µg/mL | MIC90 (P. acnes [2]; 16 P. acnes isolates, no sebum): > 32 µg/mL | MBC (P. acnes [2]; [3]): > 16 µg/mL | MBC (P. acnes [2]; [4]): > 32 µg/mL | isolates resistant (P. acnes [2]; share of the P. acnes isolates resistant to the drug): 44%
